From the NIST ThermoML archive (doi:10.1007/s10765-012-1370-2)

Experiment: xn = mol fraction of the nth substance listed
Conditions: Liquid, Bellows volumetry

CCC [propane] + O=C=O
mass density [kg/m3]
Conditions	280 K	320 K	360 K	400 K	440 K
3000 kPa, x2 = 0.1744	556.31	–	–	–	–
5000 kPa, x2 = 0.1744	561.89	482.68	–	–	–
10000 kPa, x2 = 0.1744	573.48	508.23	419.87	–	–
10000 kPa, x2 = 0.3863	620.48	530.48	–	–	–
10000 kPa, x2 = 0.5837	680.55	547.46	–	–	–
10000 kPa, x2 = 0.7732	763.91	–	–	–	–
20000 kPa, x2 = 0.1744	592.16	539.43	481.41	–	–
20000 kPa, x2 = 0.3863	644.94	577.9	501.31	416.94	–
20000 kPa, x2 = 0.5837	713.25	623.7	518.21	–	–
20000 kPa, x2 = 0.7732	807.46	683.7	532.45	–	–
30000 kPa, x2 = 0.1744	606.51	560.67	513.49	463.97	–
30000 kPa, x2 = 0.3863	663.74	606.46	546.54	484.73	425.58
30000 kPa, x2 = 0.5837	737.38	663.4	584.42	504.63	–
30000 kPa, x2 = 0.7732	837.33	738.49	631.46	526.28	–
40000 kPa, x2 = 0.1744	619.31	577.4	535.86	493.75	453.4
40000 kPa, x2 = 0.3863	678.81	628.01	576.34	524.65	475.39
40000 kPa, x2 = 0.5837	756.53	691.1	624.74	558.9	498.14
40000 kPa, x2 = 0.7732	861.06	775.23	686.69	600.44	524.14
50000 kPa, x2 = 0.1744	629.89	591.36	553.69	515.97	480.3
50000 kPa, x2 = 0.3863	691.83	645.47	599.05	553.29	510.05
50000 kPa, x2 = 0.5837	772.63	713.18	654.15	596.39	543.19
50000 kPa, x2 = 0.7732	880.32	803.46	725.46	650.25	582.81
60000 kPa, x2 = 0.1744	639.83	603.47	568.6	533.68	501.53
60000 kPa, x2 = 0.3863	703.48	660.15	617.66	575.8	536.68
60000 kPa, x2 = 0.5837	786.68	731.74	677.69	625.2	577.1
60000 kPa, x2 = 0.7732	897.67	826.73	755.67	687.92	626.71
70000 kPa, x2 = 0.1744	648.12	613.78	581.28	548.87	518.95
70000 kPa, x2 = 0.3863	713.93	673.05	633.44	594.51	558.53
70000 kPa, x2 = 0.5837	799.31	747.63	697.37	648.89	604.68
70000 kPa, x2 = 0.7732	912.73	846.24	780.83	718.31	661.78
80000 kPa, x2 = 0.1744	656.23	623.2	592.36	561.96	533.91
80000 kPa, x2 = 0.3863	723.24	684.45	647.34	610.56	576.94
80000 kPa, x2 = 0.5837	810.6	761.45	714.31	668.81	627.72
80000 kPa, x2 = 0.7732	927.24	863.57	802.2	743.76	690.97
90000 kPa, x2 = 0.1744	663.51	631.77	602.5	573.37	546.96
90000 kPa, x2 = 0.3863	732.5	694.88	659.51	624.68	592.95
90000 kPa, x2 = 0.5837	821.14	773.99	729.21	686.29	647.49
90000 kPa, x2 = 0.7732	939.34	879.25	821	765.81	715.85
100000 kPa, x2 = 0.1744	670.12	639.8	611.43	583.87	558.7
100000 kPa, x2 = 0.3863	740.27	704.18	670.54	637.16	607.11
100000 kPa, x2 = 0.5837	830.57	785.61	742.72	701.68	664.74
100000 kPa, x2 = 0.7732	951.22	893.05	837.52	785.16	737.47
120000 kPa, x2 = 0.1744	682.47	654.22	627.94	601.92	578.72
120000 kPa, x2 = 0.3863	754.61	721.25	690.06	658.95	631.24
120000 kPa, x2 = 0.5837	847.84	806	766.21	728.37	694.36
120000 kPa, x2 = 0.7732	971.86	917.78	866.62	818.25	774.63
140000 kPa, x2 = 0.1744	693.54	666.67	642.06	617.62	595.88
140000 kPa, x2 = 0.3863	767.28	735.96	706.76	677.58	651.66
140000 kPa, x2 = 0.5837	862.96	824.18	786.28	750.66	719.21
140000 kPa, x2 = 0.7732	989.75	939.18	891.18	845.81	805.33
160000 kPa, x2 = 0.1744	703.41	678.11	654.39	631.49	610.94
160000 kPa, x2 = 0.3863	779.18	749.2	721.47	693.82	669.67
160000 kPa, x2 = 0.5837	876.77	839.79	803.84	770.18	740.68
160000 kPa, x2 = 0.7732	1006.14	958.02	912.47	869.72	831.52
180000 kPa, x2 = 0.1744	712.71	688.17	665.89	643.58	624.2
180000 kPa, x2 = 0.3863	789.73	761.05	734.92	708.41	685.33
180000 kPa, x2 = 0.5837	889	853.99	819.85	787.61	759.39
180000 kPa, x2 = 0.7732	1020.76	975.24	931.8	890.88	854.41
200000 kPa, x2 = 0.1744	720.96	697.95	676.04	654.96	636.19
200000 kPa, x2 = 0.3863	799.56	772.24	746.96	721.61	699.19
200000 kPa, x2 = 0.5837	900.92	866.84	833.79	803.17	776.34
200000 kPa, x2 = 0.7732	1034.57	990.64	948.91	909.94	875.02
